Source: US12466816B2, “Fused cyclic compound capable of degrading protein and use thereof” (Medshine Discovery Inc., priority 2019, dated 2025)

Key:
Assay type in all cases: cell-based
[1] = test system: Hep3B cells; assay: Sensitivity of wild-type versus CRBN KO cells to WX106 (CCK-8); settings: 10 μM, 72 h
Method: (§1) The sgRNA sequence targeting CRBN was inserted into lenti Crispr V2 plasmid, the virus was co-packaged with the packaging vectors psPAX2 and pVSVG, and the cells were infected; screening was performed with puromycin (Invitrogen, A1113803) and the knockout of CRBN was identified by Western blot; finally, the cell growth was detected to calculate the survival rate.
WX106 (10 μM) was added to wild-type Hep3B cells and Hep3B CRBN KO (knockout) hybrid clone cells, respectively, and cell proliferation was detected by CCK-8 after 72 h.

[2] = target: T1, Wee1 (Homo sapiens, UniProt P30291); assay: Detection of protein degradation by the drug (Western blot); parameters: endogenous in cells; host or cells: MOLT-4, U87-MG; settings: 6 hours
Method: Cells were seeded in 6-well plates at a density of about 70%, and the compound WX106 of different concentrations (concentrations shown in the accompanying drawings) were added for 6 hours of treatment, and then the whole-cell lysates were collected for target protein detection. The antibody used was: (Wee1 (D10D2) Rabbit mAb, Cell Signaling, 13084S). To investigate whether drug-induced protein degradation occurs via the ubiquitin pathway, MG132 was used to block ubiquitin-mediated protein degradation. This method was also applied to 293T, MOLT-4, U87-MG, HCT116, and LN-229.
FIG. 13 and FIG. 14 show the effect of WX106 on Wee1 protein expression in MOLT-4 cells.

[3] = test system: Hep3B and SNU182 cells; assay: Growth curves of stable CRBN knockout cell lines (pool); settings: 10 μM
Method: as §1
Stable CRBN knockout cell lines (pool) were established in Hep3B and SNU182 cells, respectively, and treated with WX106 (10 μM) or solvent; the growth of cells was detected at different time points and the growth curves were drawn.

[4] = target: T1, Wee1; assay: CRBN-dependent ubiquitin-mediated degradation of Wee1 (wild-type versus CRBN KO cells, Western blot); parameters: endogenous in cells; host or cells: U87-MG
Method: 293T cells and 293T CRBN KO cells were treated with DMSO, 1 μM WX106, 10 μM WX106 alone or in combination with 10 μM MG132 for 16 h, the whole-cell lysates were collected, and Wee1 protein expression was detected using Western blot. […] U87-MG cells and U87-MG CRBN KO cells were treated with 10 μM WX106 or WX106 plus 10 μM MG132 for 16 h, and the level of Wee1 protein expression was detected using Western blot.

[5] = target: T1, Wee1; assay: Label-free quantitative mass spectrometry for proteomic analysis; parameters: endogenous in cells; host or cells: MOLT-4; settings: MOLT-4, 10 μM WX106 (10 μM MG132 where added), 6 hours, replicates
Method: There are three treatment methods for the selected MOLT-4 cells; one is to directly add DMSO as a control, the other is to add 10 μM WX106, and the third is to add 10 μM WX106 and 10 μM MG132 (proteasome inhibitor; APEXBIO, A2585 and MG132 are capable of blocking ubiquitin-mediated protein degradation). Two replicates were prepared for the 10 μM WX106 plus 10 μM MG132 group, and three replicates were prepared for the DMSO control group and 10 μM WX106 administration group, respectively. The drug treatment time for MOLT-4 was 6 hours. Mass spectrometry samples were prepared based on the basic steps of urea cleavage, reductive alkylation, desalting, and lyophilization. The prepared samples were subjected to two-hour gradient analysis on a Q Exactive HF mass spectrometer, followed by data analysis.

[6] = target: T2, Wee1-CRBN complex (Homo sapiens, UniProt P30291+Q96SW2); assay: Co-immunoprecipitation; settings: 293T cells
T2 construct: expressed in transfected cells; host or cells: 293T
Method: The plasmid was transfected into 293T cells. After 24 hours, the compound WX106 was added to treat the cells for a certain period of time. The cells were lysed with NETN lysis buffer (150 mM NaCl, 50 mM Tris-HCl of pH 8.0, 1% NP40), followed by incubation with agarose beads (EZview™ Red anti-HA affinity gel, Sigma, E6779; anti-FLAG® M2 affinity gel, Sigma, A2220) and lysis buffer for 2 hours. The beads were washed 4 times with lysis buffer, loading buffer (100 mM Tris-HCl, 4% SDS, 0.05% BPB, 2% β-mercaptoethanol, 20% glycerol) was added and detection was performed using Western blot.
According to FIG. 24, HA CRBN (CRBN was overexpressed in cells by transfection technology; HA is a polypeptide and CRBN fusion expression; CRBN refers to endogenous CRBN in cells) and FLAG Wee1 (Wee1 was overexpressed in cells by transfection technology; FLAG is a polypeptide and CRBN fusion expression; Wee1 refers to endogenous Wee1 in cells) were overexpressed in 293T cells [and left to stand] for 24 hours after transfection; thereafter, the cells were treated with 20 μM MG132 or 10 μM WX106 1 h and 2 h before they were harvested for Co-IP (co-immunoprecipitation) assay, respectively. […] According to FIG. 26, overexpressed CRBN and endogenous Wee1 were used for co-immunoprecipitation. […] According to FIG. 27, different Wee1 fragments were cloned separately and subjected to Co-IP with CRBN.

[7] = target: T3, CK1α (Homo sapiens, UniProt P48729); assay: Detection of protein degradation by the drug (Western blot); settings: MOLT-4 cells
T3 construct: endogenous in cells; host or cells: MOLT-4
T3 sequence (P48729 whole entry): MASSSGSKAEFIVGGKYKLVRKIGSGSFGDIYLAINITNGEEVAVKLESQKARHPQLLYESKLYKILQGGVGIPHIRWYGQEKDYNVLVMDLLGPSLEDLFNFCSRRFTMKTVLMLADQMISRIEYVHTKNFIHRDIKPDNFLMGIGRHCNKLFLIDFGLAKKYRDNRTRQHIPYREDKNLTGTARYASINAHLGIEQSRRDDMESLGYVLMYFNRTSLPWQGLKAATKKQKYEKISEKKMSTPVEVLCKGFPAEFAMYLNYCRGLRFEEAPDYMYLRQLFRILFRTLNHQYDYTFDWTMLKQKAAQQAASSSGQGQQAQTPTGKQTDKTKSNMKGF

T1 sequence (P30291 whole entry): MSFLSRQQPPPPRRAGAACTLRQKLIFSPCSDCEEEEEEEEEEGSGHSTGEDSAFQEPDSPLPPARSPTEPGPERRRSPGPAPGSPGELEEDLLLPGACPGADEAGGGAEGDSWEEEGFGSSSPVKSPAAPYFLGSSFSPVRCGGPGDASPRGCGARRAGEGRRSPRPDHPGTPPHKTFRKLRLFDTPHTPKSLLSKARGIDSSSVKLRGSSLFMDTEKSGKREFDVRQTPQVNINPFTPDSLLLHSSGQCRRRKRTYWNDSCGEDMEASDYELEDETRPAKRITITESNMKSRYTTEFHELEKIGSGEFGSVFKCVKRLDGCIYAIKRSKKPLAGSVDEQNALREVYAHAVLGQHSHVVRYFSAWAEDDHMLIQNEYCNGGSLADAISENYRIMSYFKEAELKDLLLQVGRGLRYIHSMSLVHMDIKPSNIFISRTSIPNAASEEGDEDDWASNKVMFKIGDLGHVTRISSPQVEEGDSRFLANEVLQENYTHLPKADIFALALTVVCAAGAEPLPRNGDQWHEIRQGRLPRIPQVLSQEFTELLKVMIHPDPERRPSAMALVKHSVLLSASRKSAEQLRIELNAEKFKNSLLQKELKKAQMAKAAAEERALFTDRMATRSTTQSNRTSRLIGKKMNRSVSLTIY
T2 sequence (Q96SW2 whole entry): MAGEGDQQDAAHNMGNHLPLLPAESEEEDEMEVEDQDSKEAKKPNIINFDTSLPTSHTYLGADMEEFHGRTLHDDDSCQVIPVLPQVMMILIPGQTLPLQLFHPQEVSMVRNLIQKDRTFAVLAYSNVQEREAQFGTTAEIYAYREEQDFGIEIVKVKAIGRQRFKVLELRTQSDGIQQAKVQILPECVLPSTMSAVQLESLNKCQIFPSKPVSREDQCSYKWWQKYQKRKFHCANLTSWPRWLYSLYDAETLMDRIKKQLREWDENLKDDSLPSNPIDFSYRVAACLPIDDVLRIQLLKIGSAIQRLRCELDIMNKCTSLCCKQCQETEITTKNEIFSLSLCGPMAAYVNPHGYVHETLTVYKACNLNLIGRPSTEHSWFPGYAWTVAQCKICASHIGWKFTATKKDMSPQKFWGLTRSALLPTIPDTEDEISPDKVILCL
T2 sequence (P30291 whole entry): as the sequence (P30291 whole entry) above
T2 sequence (Q16531 whole entry partner): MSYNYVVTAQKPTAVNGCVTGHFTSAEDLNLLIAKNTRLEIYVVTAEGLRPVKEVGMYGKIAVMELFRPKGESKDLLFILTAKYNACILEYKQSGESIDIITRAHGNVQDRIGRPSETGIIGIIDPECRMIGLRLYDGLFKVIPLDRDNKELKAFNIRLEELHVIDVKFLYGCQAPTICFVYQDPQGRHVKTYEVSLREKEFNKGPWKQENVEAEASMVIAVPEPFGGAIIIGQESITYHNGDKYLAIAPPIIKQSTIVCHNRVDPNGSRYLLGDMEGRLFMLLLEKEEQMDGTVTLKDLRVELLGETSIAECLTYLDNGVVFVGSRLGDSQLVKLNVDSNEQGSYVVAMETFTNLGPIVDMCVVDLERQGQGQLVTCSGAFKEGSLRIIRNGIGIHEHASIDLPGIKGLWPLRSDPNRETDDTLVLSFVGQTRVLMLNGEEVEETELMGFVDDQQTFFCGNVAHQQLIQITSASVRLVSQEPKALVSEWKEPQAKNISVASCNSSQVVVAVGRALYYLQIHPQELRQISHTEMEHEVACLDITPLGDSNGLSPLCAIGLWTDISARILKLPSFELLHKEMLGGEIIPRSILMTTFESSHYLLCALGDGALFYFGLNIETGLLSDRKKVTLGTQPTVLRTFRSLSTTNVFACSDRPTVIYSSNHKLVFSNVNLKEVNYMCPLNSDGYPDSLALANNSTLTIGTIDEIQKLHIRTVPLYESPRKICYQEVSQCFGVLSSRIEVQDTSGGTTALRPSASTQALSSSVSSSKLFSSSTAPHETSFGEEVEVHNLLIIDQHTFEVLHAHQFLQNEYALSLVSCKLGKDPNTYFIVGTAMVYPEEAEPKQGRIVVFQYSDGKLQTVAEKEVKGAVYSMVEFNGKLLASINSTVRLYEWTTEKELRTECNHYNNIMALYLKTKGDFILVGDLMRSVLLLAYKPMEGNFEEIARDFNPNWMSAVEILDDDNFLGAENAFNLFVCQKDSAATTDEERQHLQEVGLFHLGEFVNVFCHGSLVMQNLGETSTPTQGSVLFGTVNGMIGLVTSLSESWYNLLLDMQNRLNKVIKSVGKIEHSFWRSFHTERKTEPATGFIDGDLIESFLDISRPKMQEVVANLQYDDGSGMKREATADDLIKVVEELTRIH

pro-degradation effect on Wee1 ([2]; HCT116 cells): weak pro-degradation effect
pro-degradation effect on Wee1 ([2]; U87-MG cells): significant pro-degradation effect
level of Wee1 expression in CRBN-deficient cells ([4]; 293T CRBN KO cells, 1 μM or 10 μM, 16 h): no significant change
Wee1 degradation in wild-type cells ([4]; 293T cells, 1 μM or 10 μM, 16 h): promoted Wee1 degradation
pro-degradation effect on Wee1 when MG132 was added ([4]; wild-type 293T cells, with 10 μM MG132, 16 h): absent
Wee1 LFQ intensity [5]: 0
complex formed by Wee1 and CRBN (HA CRBN and FLAG Wee1 overexpressed) ([6]; 10 μM WX106, 20 μM MG132, FIG. 24): significantly increased
complex formed by Wee1 and CRBN (overexpressed CRBN and endogenous Wee1) ([6]; FIG. 26): significantly increased
pro-degradation effect on CK1α [7]: no significant pro-degradation effect
SMILES: Cc1ccc(C(=O)Nc2ccc3occ(C4CCC(=O)NC4=O)c3c2)cc1Cl (stereo not drawn) [WX106]
sensitivity of cells to WX106 after CRBN knockout [1]: significantly reduced
sensitivity of cells with normal CRBN expression (growth curve) ([3]; Hep3B and SNU182): very sensitive
growth rate of low-CRBN-expression cells compared with the solvent group ([3]; Hep3B and SNU182 CRBN knockout pools): no significant difference
